Assay results as given in patent publication US10285994B2, “Method of preventing or treating osteoporosis by neddylation inhibitor” (Chang Gung University, priority 2017, dated 2019).

Tested on: P38 (pP38)
Assay: Western blot, sRANKL-induced P38 phosphorylation in RAW264.7 cells
Type: cell-based, mouse
Details: RAW264.7, 30 min pre-treatment, sRANKL 50 ng/ml, FIG. 3A-3B
Method: FIGS. 3A-3D are data collected from Western blot analysis that respectively depict the expression of specified protein extracted from the RAW264.7 cells, which are pre-treated with specified concentrations of MLN4924 for 30 minutes followed by the stimulation of sRANKL (50 ng/ml) according to example 2 of the present disclosure. FIG. 3A: the time course effect of MLN4924 on the phosphorylations of ERK (pERK), P38 (pP38) and JNK (pJNK). FIG. 3B: the dose effect of MLN4924 on the phosphorylations of ERK (pERK), P38 (pP38) and JNK (pJNK). FIG. 3C: the time course effect of MLN4924 on the expression of NFATc-1. FIG. 3D: the dose effect of MLN4924 on the expression of NFATc-1. Mock: untreated control; R: sRANKL; M: MLN4924.
The RAW264.7 cells were starved with serum-free medium for six hours and then treated with the specified treatments. At indicated time points, the cells were washed with cold phosphate-buffered saline (PBS) and lysed in RIPA buffer containing complete protease inhibitor cocktail (Roche). The cell lysates were separated by SDS-PAGE followed by Western blotting with the indicated antibodies, including NEDD8, APPBP1, UBA3.
Specifically, the inhibitory effect increased with an increase in the MLN4924 concentration (FIG. 3B).

Compound: NS(=O)(=O)OC[C@@H]1C[C@@H](n2ccc3c(N[C@H]4CCc5ccccc54)ncnc32)C[C@@H]1O [MLN4924, (1S,2S,4R)-4-(4-((1S)-2,3-Dihydro-1H-inden-1-ylamino)-7H-pyrrolo(2,3-d)pyrimidin-7-yl)-2-hydroxycyclopentyl) methyl sulphamate]
- sRANKL-upregulated phosphorylation of P38 (pP38): inhibited
